Measurements as given in ChEMBL document CHEMBL5370591, “A Potent and Narrow-Spectrum Antibacterial against Clostridioides difficile Infection” (J Med Chem, 2023).
In brackets after ≈: the same amount, converted by molar mass.

Tested on: Clostridioides difficile
Experiment: Antibacterial activity against Clostridium difficile ATCC 43255 measured after 48 hrs by two fold serial dilution method
Type: functional

Structure (SMILES) | MIC [µg/mL]
CN1CCC(Oc2ccc(-c3noc(-c4nc([N+](=O)[O-])c[nH]4)n3)cc2)C1.Cl (configuration not stated) | > 128
FC(F)(F)c1ccc(Oc2ccc(-c3noc(-c4n[nH]cc4Cl)n3)cc2)cc1 | > 128
Oc1ccc(-c2nc(-c3ccc(OC4CCOC4)cc3)no2)cc1 (configuration not stated) | > 128
Nc1ccc(-c2nc(-c3ccc(OC4CCCC4)cc3)no2)cc1 | > 128
Oc1ccc(-c2nc(-c3ccc(Oc4ccccc4CBr)cc3)no2)cc1 | 8 (≈ 18.9 µM)
Cl.O=[N+]([O-])c1c[nH]c(-c2nc(-c3ccc(OC4CCNCC4)cc3)no2)n1 | > 128
FC(F)(F)c1ccc(Oc2ccc(-c3noc(-c4ccncc4)n3)cc2)cc1 | > 128
CN1CCN(c2ccc(-c3noc(-c4ccc(O)cc4)n3)cc2)CC1 | > 128
O=C1C[C@@H](c2nc(-c3ccc(Oc4ccc(C(F)(F)F)cc4)cc3)no2)CN1 | > 128
Oc1ccc(-c2nc(-c3ccc(Oc4ccc(C(F)(F)F)cc4)nc3)no2)cc1 | > 128
FC(F)(F)c1ccc(Oc2ccc(-c3noc(-c4nc[nH]n4)n3)cc2)cc1 | > 128
CCC(C)Nc1c[nH]nc1-c1nc(-c2ccc(Oc3ccc(C(F)(F)F)cc3)cc2)no1 (configuration not stated) | > 128
Oc1ccc(Cc2nc(-c3ccc(OC4CCCC4)cc3)no2)cc1 | 16 (≈ 47.6 µM)
Oc1cc(-c2nc(-c3ccc(Oc4ccc(C(F)(F)F)cc4)cc3)no2)cc(F)c1O | > 128
Oc1ccc(-c2nc(-c3ccc4oc5ccc(F)cc5c4c3)no2)cc1 | > 128
Oc1ccc(-c2noc(-c3ccc(O)cc3)n2)cc1 | 128 (≈ 503 µM)
Oc1ccc(-n2cc(-c3ccc(Oc4ccccc4)cc3)nn2)cc1 | > 128
NC1CCN(c2ccc(-c3noc(-c4ccc(O)cc4)n3)cc2)CC1 | 64 (≈ 190 µM)
c1cc2cc(-c3nc(-c4ccc5c(c4)CCN5)no3)ccc2[nH]1 | > 128
Oc1cccc(/C=C/c2nc(-c3ccc(OC4CCCC4)cc3)no2)c1 | > 128
O=[N+]([O-])c1ccc(-c2nc(-c3ccc(OC4CCCC4)cc3)no2)cc1 | > 128
COc1ccc(-c2noc(-c3ccc(O)cc3)n2)cc1OC | > 128

Structure (SMILES) | MIC [µg/mL]
Oc1ccc(-c2nc(-c3ccc(OC4CCC4)cc3)no2)cc1 | > 128
Cl.NCCCOc1ccc(-c2noc(-c3ccc(O)cc3)n2)cc1 | 64
FC(F)(F)c1ccc(Oc2ccc(-c3noc(-c4cn[nH]c4)n3)cc2)cc1 | > 128
Cl.NCc1ccc(-c2nc(-c3ccc(OC4CCCC4)cc3)no2)cc1 | 8
COc1ccc(-c2nc(-c3ccc(Oc4ccc(C(F)(F)F)cc4)cc3)no2)cc1[N+](=O)[O-] | > 128
Oc1ccc(-c2nc(N3CCN(c4cccc(Cl)c4)CC3)no2)cc1 | > 128
O=[N+]([O-])c1ccc(-c2nc(-c3ccc(Oc4ccc(C(F)(F)F)cc4)cc3)no2)cc1 | > 128
FC(F)(F)c1ccc(Oc2ccc(-c3noc(-c4cc[nH]n4)n3)cc2)cc1 | > 128
FC(F)(F)c1ccc(Oc2ccc(-c3noc(-c4n[nH]cc4Nc4cc5ccccc5[nH]4)n3)cc2)cc1 | > 128
O=C(c1ccc(-c2noc(-c3ccc(O)cc3)n2)cc1)C(F)(F)F | 8 (≈ 23.9 µM)
Oc1ccc(Oc2ccc(-c3noc(-c4ccc(O)cc4)n3)cc2)cc1 | 64 (≈ 185 µM)
C[C@@H](NC(=O)OC(C)(C)C)C(=O)N[C@H](C)c1nc(-c2ccc(OC3CCCC3)cc2)no1 | > 128
Cl.O=[N+]([O-])c1c[nH]c(-c2nc(-c3ccc(CN4CCCC4)cc3)no2)n1 | > 128
c1cc2cc(-c3nc(-c4ccc(OC5CCCC5)cc4)no3)ccc2[nH]1 | 8 (≈ 23.2 µM)
COC(OC)c1ccc(-c2noc(-c3ccc(O)cc3)n2)cc1 | > 128
Oc1ccc(-c2nc(-c3ccc(Oc4ccc(I)cc4)cc3)no2)cc1 | 16 (≈ 35.1 µM)
O=[N+]([O-])c1c[nH]c(Nc2c[nH]nc2-c2nc(-c3ccc(Oc4ccc(C(F)(F)F)cc4)cc3)no2)c1 | 8 (≈ 16.1 µM)
COc1cc(-c2nc(-c3ccc(Oc4ccc(C(F)(F)F)cc4)cc3)no2)cc(F)c1O | 16 (≈ 35.8 µM)
O=C(NNC(=O)c1ccc(OC2CCCC2)cc1)c1ccc(O)cc1 | > 128
Cl.Nc1nc(-c2ccc(OC3CCCC3)cc2)no1 | > 128
Oc1ccc(-c2nc(-c3ccc4oc5ccc(C(F)(F)F)cc5c4c3)no2)cc1 | > 128
Oc1ccc(-c2nc(-c3ccc(N4CCOCC4)cc3)no2)cc1 | > 128

Structure (SMILES) | MIC [µg/mL]
Clc1nc(-c2ccc(OC3CCCC3)cc2)no1 | > 128
FC(F)(F)c1ccc(Oc2ccc(-c3noc(-c4ccc(Br)cc4)n3)cc2)cc1 | > 128
CC(C)S(=O)(=O)Oc1ccc(-c2noc(-c3ccc(O)cc3)n2)cc1 | > 128
c1cc2cc(-c3nc(-c4ccc5occc5c4)no3)ccc2[nH]1 | > 128
FC(F)(F)c1ccc(Oc2ccc(-c3noc(-c4n[nH]cc4Nc4n[nH]c5ccccc45)n3)cc2)cc1 | > 128
Clc1ccc(N2CCN(c3noc(-c4ccc5[nH]ccc5c4)n3)CC2)cc1Cl | > 128
Nc1cc(-c2noc(-c3ccc(O)cc3)n2)ccc1Oc1ccccc1 | > 128
Nc1cc(Oc2ccccc2)ccc1-c1noc(-c2ccc(O)cc2)n1 | > 128
FC(F)(F)c1ccc(Oc2ccc(-c3noc(-c4n[nH]cc4I)n3)cc2)cc1 | > 128
Oc1ccc(-c2nc(-c3ccc4c(c3)OCO4)no2)cc1 | > 128
c1cc2cc(-c3nc(-c4ccc5c(c4)CCO5)no3)ccc2[nH]1 | > 128
FC(F)(F)c1ccc(Oc2ccc(-c3noc(-c4n[nH]cc4Br)n3)cc2)cc1 | > 128
Clc1cccc(N2CCN(c3noc(-c4ccc5[nH]ccc5c4)n3)CC2)c1 | > 128
Oc1ccc(-c2nc(-c3ccc(C(O)C(F)(F)F)cc3)no2)cc1 (configuration not stated) | 32 (≈ 95.2 µM)
Oc1ccc(-c2nnc(-c3ccc(OC4CCCC4)cc3)o2)cc1 | > 128
O=C(Nc1c[nH]nc1-c1nc(-c2ccc(Oc3ccc(C(F)(F)F)cc3)cc2)no1)c1ccccn1 | > 128
COc1ccc2oc3ccc(-c4noc(-c5n[nH]cc5[N+](=O)[O-])n4)cc3c2c1 | 64 (≈ 170 µM)
FC(F)(F)c1ccc(Oc2ccc(-c3noc(-c4cn[nH]n4)n3)cc2)cc1 | > 128
CCCCNc1c[nH]nc1-c1nc(-c2ccc(Oc3ccc(C(F)(F)F)cc3)cc2)no1 | > 128
Nc1ccc(-c2nc(-c3ccc(Oc4ccc(C(F)(F)F)cc4)cc3)no2)cc1F | > 128
O=C1C[C@H](c2nc(-c3ccc(Oc4ccc(C(F)(F)F)cc4)cc3)no2)CN1 | > 128
C[C@@H](NC(=O)OC(C)(C)C)c1nc(-c2ccc(OC3CCCC3)cc2)no1 | > 128

Structure (SMILES) | MIC [µg/mL]
CC(C)(C)Oc1ccc(-c2noc(-c3ccc(O)cc3)n2)cc1 | > 128
O=[N+]([O-])c1ccc(-c2noc(-c3ccc4[nH]ccc4c3)n2)cc1 | > 128
FC(F)(F)c1ccc(Oc2ccc(-c3noc(-c4n[nH]cc4NC4CCCC4)n3)cc2)cc1 | > 128
O=[N+]([O-])c1c[nH]nc1-c1nc(-c2ccc(Oc3ccccc3)cc2)no1 | > 128
CC(C)(C)OC(=O)N1CCC(Nc2c[nH]nc2-c2nc(-c3ccc(Oc4ccc(C(F)(F)F)cc4)cc3)no2)CC1 | > 128
FC(F)(F)c1ccc(Oc2ccc(-c3noc(-c4n[nH]cc4Nc4c[nH]c5ncccc45)n3)cc2)cc1 | > 128
CCCCOc1ccc(-c2noc(-c3ccc(O)cc3)n2)cc1 | > 128
O=Cc1ccc(-c2noc(-c3ccc(O)cc3)n2)cc1 | > 128
CC(C)(C)OC(=O)N1CCC(Oc2ccc(-c3noc(-c4nc([N+](=O)[O-])c[nH]4)n3)cc2)CC1 | > 128
Nc1c[nH]nc1-c1nc(-c2ccc(Oc3ccc(C(F)(F)F)cc3)cc2)no1 | > 128
Fc1ccccc1-c1noc(-c2ccc3[nH]ccc3c2)n1 | > 128
C[C@@H](N)c1nc(-c2ccc(OC3CCCC3)cc2)no1 | > 128
CCCOc1ccc(-c2noc(-c3ccc(O)cc3)n2)cc1 | > 128
Oc1ccc(-c2nc(-c3ccc(Oc4ccc(C(F)(F)F)cc4)cc3)no2)cn1 | > 128
Oc1ccc(-c2nc(-c3ccc4[nH]c5ccccc5c4c3)no2)cc1 | > 128
Nc1cncc(-c2nc(-c3ccc(Oc4ccc(C(F)(F)F)cc4)cc3)no2)c1 | > 128
COc1ccc(-c2nc(-c3ccc(Oc4ccc(C(F)(F)F)cc4)cc3)no2)cc1OC | > 128
Cl.NCCCCc1nc(-c2ccc(OC3CCCC3)cc2)no1 | 128
Oc1ccc(-c2nc(N3CCN(c4ccccc4)CC3)no2)cc1 | > 128
Fc1ccc2oc3ccc(-c4noc(-c5ccc6[nH]ccc6c5)n4)cc3c2c1 | > 128
Oc1nc(-c2ccc(OC3CCCC3)cc2)no1 | 64 (≈ 260 µM)
FC(F)(F)c1ccc(Oc2ccc(-c3noc(-c4c[nH]cn4)n3)cc2)cc1 | 8 (≈ 21.5 µM)

Structure (SMILES) | MIC [µg/mL]
Oc1ccc(-c2nc(-c3ccc4oc5ccccc5c4c3)no2)cc1 | > 128
O=[N+]([O-])c1cn(CCO)c(-c2nc(-c3ccc(OC4CCCC4)cc3)no2)n1 | > 128
Oc1ccc(/C=C/c2nc(-c3ccc(OC4CCCC4)cc3)no2)cc1 | 64 (≈ 184 µM)
Oc1ccc(-c2cc(-c3ccc(Oc4ccccc4)cc3)no2)cc1 | > 128
CCOc1ccc(-c2noc(-c3ccc(O)cc3)n2)cc1 | > 128
Cl.Oc1ccc(-c2nc(-c3ccc(OC4CCNC4)cc3)no2)cc1 (configuration not stated) | 64
Nc1cc(-c2nc(-c3ccc(Oc4ccc(C(F)(F)F)cc4)cc3)no2)cnc1O | > 128
C#CCCOc1ccc(-c2noc(-c3ccc(O)cc3)n2)cc1 | > 128
FC(F)(F)Oc1ccc(-c2noc(-c3ccc4[nH]ccc4c3)n2)cc1 | > 128
COc1ccc(-c2noc(-c3ccc(O)cc3)n2)cc1 | > 128
Cn1c(-c2nc(-c3ccc(OC4CCCC4)cc3)no2)cnc1[N+](=O)[O-] | 32 (≈ 90.1 µM)
Oc1ccc(-c2nc(-c3ccc(OC(F)(F)F)cc3)no2)cc1 | 64 (≈ 199 µM)
O=[N+]([O-])c1cc(Oc2ccc(C(F)(F)F)cc2)cnc1-c1noc(-c2ccc(O)cc2)n1 | > 128
C#CCOc1ccc(-c2noc(-c3ccc(O)cc3)n2)cc1 | 128 (≈ 438 µM)
N#Cc1ccc(Oc2ccc(-c3noc(-c4ccc(O)cc4)n3)cc2)cc1 | > 128
c1nc2cc(-c3nc(-c4ccc(OC5CCCC5)cc4)no3)ccc2[nH]1 | 128 (≈ 370 µM)
O=C(O)c1ccc(-c2nc(-c3ccc(OC4CCCC4)cc3)no2)cc1 | > 128
Oc1ccc(-c2nc(-c3ccc(Oc4ccccc4)c(Br)c3)no2)cc1 | > 128
CS(=O)(=O)Nc1ccc(-c2nc(-c3ccc(OC4CCCC4)cc3)no2)cc1 | > 128
